Data from patent publication US20240116985A1, “STAPLED PEPTIDES AND METHODS THEREOF” (priority 2020, published 2024).

Molecular target: T1, full-length beta-Catenin (Uniprot ID P35222) (Homo sapiens, UniProt P35222)
T1 construct: 10 nM full-length beta-Catenin (Uniprot ID P35222)
T1 sequence (P35222 1-781): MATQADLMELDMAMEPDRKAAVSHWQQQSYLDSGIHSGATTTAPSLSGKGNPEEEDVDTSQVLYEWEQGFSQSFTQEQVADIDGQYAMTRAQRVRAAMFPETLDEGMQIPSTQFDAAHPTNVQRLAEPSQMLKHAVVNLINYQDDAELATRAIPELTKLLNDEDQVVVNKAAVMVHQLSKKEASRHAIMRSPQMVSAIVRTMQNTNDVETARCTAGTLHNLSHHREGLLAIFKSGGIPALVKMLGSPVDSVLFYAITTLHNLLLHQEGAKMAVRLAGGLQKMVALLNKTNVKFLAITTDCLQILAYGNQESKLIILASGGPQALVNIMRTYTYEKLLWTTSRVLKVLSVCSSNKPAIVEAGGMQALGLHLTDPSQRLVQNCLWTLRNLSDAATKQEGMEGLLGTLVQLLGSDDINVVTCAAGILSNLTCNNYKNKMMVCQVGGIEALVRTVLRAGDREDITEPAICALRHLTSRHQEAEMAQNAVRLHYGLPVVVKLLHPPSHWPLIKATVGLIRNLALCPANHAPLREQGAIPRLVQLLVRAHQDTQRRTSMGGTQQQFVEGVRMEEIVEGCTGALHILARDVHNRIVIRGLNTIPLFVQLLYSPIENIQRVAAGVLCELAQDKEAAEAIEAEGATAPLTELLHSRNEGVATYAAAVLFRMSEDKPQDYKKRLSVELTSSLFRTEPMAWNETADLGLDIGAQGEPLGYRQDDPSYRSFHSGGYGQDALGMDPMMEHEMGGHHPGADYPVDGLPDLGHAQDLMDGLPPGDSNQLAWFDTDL
Test: Fluorescence polarization IC50 (beta-catenin / 5FAM-TCF4 10-53 competition)
Type: binding
Details: fluorescence polarization; read-out: beta-Catenin FP IC50

| Structure (SMILES) | IC50 [nM] |
| --- | --- |
| CC(=O)N1CCC[C@]12CC=CCCCC1(CCCC=CCCCOC(=O)N3CC[C@@](C(=O)N[C@@H](Cc4ccsc4)C(=O)N[C@@H](Cc4csc5ccccc45)C(=O)N[C@@H](CCC(N)=O)C(N)=O)(C3)NC(=O)[C@H](CCO)NC(=O)[C@H](Cc3cccc(C(=O)O)c3)NC(=O)[C@H](C)NC(=O)[C@H](C)NC(=O)[C@H](Cc3ccc(O)cc3)NC(=O)[C@H](CC(=O)O)NC1=O)NC(=O)[C@H](CC(C)(C)C)NC(=O)[C@H](CC(=O)O)NC2=O (stereo partly drawn) [I-2125, Ac-PL3-Asp-Npg-B5-Asp-Tyr-Ala-Ala-3COOHF-Hse-PyrS2-3Thi-BztA-Gln-NH2] | 26 |
| CC(=O)N1CCC[C@]12CC=CCCCC1(CCCC=CCCCOC(=O)N3CC[C@@](C(=O)N[C@@H](Cc4ccsc4)C(=O)N[C@@H](Cc4csc5ccccc45)C(=O)N[C@H](C(N)=O)C(C)C)(C3)NC(=O)[C@H](CC(C)C)NC(=O)[C@H](Cc3ccccc3)NC(=O)[C@H](C)NC(=O)[C@H](C)NC(=O)[C@H](CN(CC(=O)O)CC(F)(F)F)NC(=O)[C@H](CC(=O)O)NC1=O)NC(=O)[C@H](CC(C)(C)C)NC(=O)[C@H](CC(=O)O)NC2=O (stereo partly drawn) [I-1752, Ac-PL3-Asp-Npg-B5-Asp-TfeGA-Ala-Ala-Phe-Leu-PyrS2-3Thi-BztA-Val-NH2] | 87 |
| CC(=O)N1CCC[C@]12CC=CCCCC1(CCCC=CCCCCCC[C@@](C)(C(=O)N[C@@H](Cc3ccccc3)C(=O)N[C@@H](Cc3csc4ccccc34)C(=O)N[C@@H](CCC(N)=O)C(N)=O)NC(=O)[C@H](CC(C)C)NC(=O)[C@H](Cc3ccccc3)NC(=O)[C@H](C)NC(=O)[C@H](C)NC(=O)[C@H](CCC(=O)O)NC(=O)[C@H](CC(=O)O)NC1=O)NC(=O)[C@H](CCC(N)=O)NC(=O)[C@H](CC(=O)O)NC2=O (stereo partly drawn) [I-1541, Ac-PL3-Asp-Gln-B5-Asp-Glu-Ala-Ala-Phe-Leu-S8-Phe-BztA-Gln-NH2] | 39 |
| CC(=O)N1CCC[C@]12CC=CCCCC1(CCCC=CCCCOC(=O)N3CC[C@@](C(=O)N[C@@H](Cc4ccsc4)C(=O)N[C@@H](Cc4ccc5ccccc5c4)C(=O)N[C@@H](CCC(N)=O)C(N)=O)(C3)NC(=O)[C@H](CC(N)=O)NC(=O)[C@H](Cc3ccccc3)NC(=O)[C@H](C)NC(=O)[C@H](C)NC(=O)[C@H]([C@@H](C)O)NC(=O)[C@H](CC(N)=O)NC1=O)NC(=O)[C@H](CC(C)(C)C)NC(=O)[C@H](CC(=O)O)NC2=O (stereo partly drawn) [I-1873, Ac-PL3-Asp-Npg-B5-Asn-Thr-Ala-Ala-Phe-Asn-PyrS2-3Thi-2NapA-Gln-NH2] | 1480 |
| CC(=O)N1CCC[C@H]1C(=O)N[C@@H](CC(=O)O)C(=O)N[C@@H](CC(C)(C)C)C(=O)N[C@]1(C)CCCCCCOC(=O)N2CC[C@@](C(=O)N[C@@H](Cc3ccsc3)C(=O)N[C@@H](Cc3csc4ccccc34)C(=O)N[C@@H](CCC(N)=O)C(N)=O)(C2)NC(=O)[C@H](CC(C)C)NC(=O)[C@H](Cc2ccccc2)NC(=O)[C@H](C)NC(=O)[C@H](C)NC(=O)[C@H](CC(=O)O)NC(=O)[C@H](CC(=O)O)NC1=O [I-1993, Ac-Pro-Asp-Npg-R3-Asp-Asp-Ala-Ala-Phe-Leu-PyrS2-3Thi-BztA-Gln-NH2] | 728 |
| CC(=O)N1CCC[C@]12CC=CCCCC1(CCCC=CCCCOC(=O)N3CC[C@@](C(=O)N[C@@H](Cc4ccccc4)C(=O)N[C@@H](Cc4csc5ccccc45)C(=O)N[C@@H](CC(=O)N4CCOCC4)C(N)=O)(C3)NC(=O)[C@H](CC(C)C)NC(=O)[C@H](Cc3ccccc3)NC(=O)[C@H](C)NC(=O)[C@H]([C@@H](C)O)NC(=O)[C@H](CCC(N)=O)NC(=O)[C@H](CC(=O)O)NC1=O)NC(=O)[C@H](CC1CCCCC1)NC(=O)[C@H](CC(N)=O)NC2=O (stereo partly drawn) [I-2503, Ac-PL3-Asn-Cha-B5-Asp-Gln-Thr-Ala-Phe-Leu-PyrS2-Phe-BztA-MorphAsn-NH2] | 1310 |
| CC(=O)N1CCC[C@]12CC=CCCCC1(CCCC=CCCCOC(=O)N3CC[C@@](C(=O)N[C@@H](Cc4ccccc4)C(=O)N[C@@H](Cc4csc5ccccc45)C(=O)N[C@@H](CCC(N)=O)C(N)=O)(C3)NC(=O)[C@H](CC(C)C)NC(=O)[C@H](Cc3ccccc3)NC(=O)[C@H](C)NC(=O)[C@H](C)NC(=O)[C@H](CCC(N)=O)NC(=O)[C@H](CC(=O)O)NC1=O)NC(=O)[C@H](CC(C)(C)C)NC(=O)[C@H](CCO)NC2=O (stereo partly drawn) [I-2443, Ac-PL3-Hse-Npg-B5-Asp-Gln-Ala-Ala-Phe-Leu-PyrS2-Phe-BztA-Gln-NH2] | 6670 |
| CC(=O)N1CCC[C@]12CC=CCCCC1(CCCC=CCCCOC(=O)N3CC[C@@](C(=O)N[C@@H](Cc4ccccc4)C(=O)N[C@@H](Cc4csc5ccccc45)C(N)=O)(C3)NC(=O)[C@H](CC(N)=O)NC(=O)[C@H](Cc3ccccc3)NC(=O)[C@H](C)NC(=O)[C@H](CCCCNC(C)C)NC(=O)[C@H](CCC(N)=O)NC(=O)[C@H](CC(=O)O)NC1=O)NC(=O)[C@H](CC1CCCCC1)NC(=O)[C@H](CC(N)=O)NC2=O (stereo partly drawn) [I-2073, Ac-PL3-Asn-Cha-B5-Asp-Gln-iPrLys-Ala-Phe-Asn-PyrS2-Phe-BztA-NH2] | 398 |
| CC(=O)N1CCC[C@]12CC=CCCCC1(CCCC=CCCCOC(=O)N3CC[C@@](C(=O)N[C@@H](Cc4ccsc4)C(=O)N[C@@H](Cc4csc5ccccc45)C(=O)N[C@@H](CCC(N)=O)C(N)=O)(C3)NC(=O)[C@H](CC(C)C)NC(=O)[C@H](Cc3ccccc3)NC(=O)[C@H](C)NC(=O)[C@H](C)NC(=O)[C@H](CN3CCCC[C@@H]3C(=O)O)NC(=O)[C@H](CC(=O)O)NC1=O)NC(=O)[C@H](CC(C)(C)C)NC(=O)[C@H](CC(=O)O)NC2=O (stereo partly drawn) [I-1969, Ac-PL3-Asp-Npg-B5-Asp-R2COOPipA-Ala-Ala-Phe-Leu-PyrS2-3Thi-BztA-Gln-NH2] | 49 |
| CC(=O)N1CCC[C@]12CC=CCCCC1(CCCC=CCOC(=O)N3CC(C(=O)N[C@@H](Cc4ccsc4)C(=O)N[C@@H](Cc4csc5ccccc45)C(=O)N[C@@H](CCC(N)=O)C(N)=O)(C3)NC(=O)[C@H](CC(N)=O)NC(=O)[C@H](Cc3ccccc3)NC(=O)[C@H](C)NC(=O)[C@H](C)NC(=O)[C@H](CC(=O)O)NC(=O)[C@H](CC(=O)O)NC1=O)NC(=O)[C@H](CC(C)(C)C)NC(=O)[C@H](CC(=O)O)NC2=O (stereo partly drawn) [I-1827, Ac-PL3-Asp-Npg-B5-Asp-Asp-Ala-Ala-Phe-Asn-Az-3Thi-BztA-Gln-NH2] | 308 |
| CC(=O)N1CCC[C@]12CC=CCCCC1(CCCC=CCCCOC(=O)N3CC[C@@](C(=O)N[C@@H](Cc4ccsc4)C(=O)N[C@@H](Cc4csc5ccccc45)C(=O)N[C@@H](CCC(N)=O)C(N)=O)(C3)NC(=O)[C@H](CC(C)C)NC(=O)[C@H](Cc3ccccc3)NC(=O)[C@H](CCN3CCN(C)CC3)NC(=O)[C@H](C)NC(=O)[C@H](CC(=O)O)NC(=O)[C@H](CC(=O)O)NC1=O)NC(=O)[C@H](CC(C)(C)C)NC(=O)[C@H](CC(=O)O)NC2=O (stereo partly drawn) [I-1506, Ac-PL3-Asp-Npg-B5-Asp-Asp-Ala-MePpzAbu-Phe-Leu-PyrS2-3Thi-BztA-Gln-NH2] | 89 |
| CC(=O)N1CCC[C@]12CC=CCCCC1(CCCC=CCCCOC(=O)N3CC[C@@](C(=O)N[C@@H](Cc4ccccc4C)C(=O)N[C@@H](Cc4csc5ccccc45)C(=O)N[C@@H](CCC(N)=O)C(N)=O)(C3)NC(=O)[C@H](CC(N)=O)NC(=O)[C@H](Cc3ccccc3)NC(=O)[C@H](C)NC(=O)[C@H](C)NC(=O)[C@H]([C@@H](C)O)NC(=O)[C@H](CC(N)=O)NC1=O)NC(=O)[C@H](CC(C)(C)C)NC(=O)[C@H](CC(=O)O)NC2=O (stereo partly drawn) [I-1737, Ac-PL3-Asp-Npg-B5-Asn-Thr-Ala-Ala-Phe-Asn-PyrS2-2MeF-BztA-Gln-NH2] | 518 |
| CC(=O)N1CCC[C@]12CC=CCCCC1(CCCC=CCCCOC(=O)N3CC[C@@](C(=O)N[C@@H](Cc4ccsc4)C(=O)N[C@@H](Cc4csc5ccccc45)C(=O)N[C@@H](CCC(N)=O)C(N)=O)(C3)NC(=O)[C@H](Cn3cc(CN4CCS(=O)(=O)CC4)nn3)NC(=O)[C@H](Cc3ccccc3)NC(=O)[C@H](C)NC(=O)[C@H](C)NC(=O)[C@H](CN(CC(=O)O)CC(F)(F)F)NC(=O)[C@H](CC(=O)O)NC1=O)NC(=O)[C@H](CC(C)(C)C)NC(=O)[C@H](CC(=O)O)NC2=O (stereo partly drawn) [I-1869, Ac-PL3-Asp-Npg-B5-Asp-TfeGA-Ala-Ala-Phe-[SO2MorphCH2]TriAzDap-PyrS2-3Thi-BztA-Gln-NH2] | 12 |
| CC(=O)N1CCC[C@]12CC=CCCCC1(CCCC=CCCCOC(=O)N3CC[C@@](C(=O)N[C@@H](Cc4ccsc4)C(=O)N[C@@H](Cc4csc5ccccc45)C(=O)N[C@@H](CCC(N)=O)C(N)=O)(C3)NC(=O)[C@H](CC(C)C)NC(=O)[C@H](Cc3ccccc3)NC(=O)[C@H](C)NC(=O)[C@H](C)NC(=O)[C@H](CN(CC(=O)O)CC(F)(F)F)NC(=O)[C@H](C(C)(C)C(=O)O)NC1=O)NC(=O)[C@H](CC(C)(C)C)NC(=O)[C@H](CC(=O)O)NC2=O (stereo partly drawn) [I-1771, Ac-PL3-Asp-Npg-B5-bMe2Asp-TfeGA-Ala-Ala-Phe-Leu-PyrS2-3Thi-BztA-Gln-NH2] | 209 |
| CC(=O)N1CCC[C@]12CC=CCCCC1(CCCC=CCCCOC(=O)N3CC[C@@](C(=O)N[C@@H](Cc4ccccc4)C(=O)N[C@@H](Cc4csc5ccccc45)C(=O)N[C@@H](CCC(N)=O)C(N)=O)(C3)NC(=O)[C@H](CC(C)C)NC(=O)[C@H](Cc3ccccc3)NC(=O)[C@H](C)NC(=O)[C@H](CCCCNC(C)C)NC(=O)[C@H]([C@@H](C)O)NC(=O)[C@H](CC(=O)O)NC1=O)NC(=O)[C@H](CC(C)C)NC(=O)[C@H](CC(N)=O)NC2=O (stereo partly drawn) [I-1582, Ac-PL3-Asn-Leu-B5-Asp-Thr-iPrLys-Ala-Phe-Leu-PyrS2-Phe-BztA-Gln-NH2] | 1220 |
